From patent US12679837B2, “Aminopyrimidine compound as CDK2/4/6 triple inhibitor” (CISEN PHARMACEUTICAL CO., LTD, priority 2019, dated 2026) come the findings set out here.

Each structure is given as a SMILES string.

One experiment relates to HCC1806 cells. Description: HCC1806 cell activity test (CyQUANT). The experiment is classed as cell-based. The settings on record: Homo sapiens, 168 h, 7 days, read-out: Antiproliferative activity (IC50) HCC1806. As for the experimental part: Experimental materials: RPMI-1640 medium, fetal bovine serum, penicillin/streptomycin antibiotics were purchased from Vicente. CyQUANT Cell Proliferation Assays (Cell proliferation assay kit) reagents were purchased from ThermoFisher. The HCC1806 cell line was purchased from Cobioer Biosciences Co., Ltd. Nivo Multilabel Analyzer (PerkinElmer).
Experimental method: HCC1806 cells were seeded in a white 96-well plate, 80 μL of cell suspension per well, which contained 3000 HCC1806 cells. The cell plate was incubated overnight in a carbon dioxide incubator. The compounds to be tested were diluted 5-fold to the 9th concentration with a row gun, that is, from 10 mM to 25.6 nM, and a double-replicate well experiment was set up. 78 μL of medium was added to the middle plate, and then transferred 2 μL per well of the gradient diluted compound to the middle plate according to the corresponding position, mixed well and transferred 20 μL per well to the cell plate. […] After reaching the incubation time, the cell supernatant was removed, and the cell plate was placed in a −80° C. refrigerator for 1 hour, after which 100 μL of Cyquant reagent was added to each well, and a multi-label analyzer was used for reading. Another cell plate was prepared, and the signal value was read as the maximum value (Max value in the equation below) on the day of drug addition to participate in data analysis. […]

For the next experiment, the target named is T1, CDK4/CyclinD1 (Homo sapiens, UniProt P11802).
T1 construct: purchased Invitrogen
T1 sequence (P11802 whole entry): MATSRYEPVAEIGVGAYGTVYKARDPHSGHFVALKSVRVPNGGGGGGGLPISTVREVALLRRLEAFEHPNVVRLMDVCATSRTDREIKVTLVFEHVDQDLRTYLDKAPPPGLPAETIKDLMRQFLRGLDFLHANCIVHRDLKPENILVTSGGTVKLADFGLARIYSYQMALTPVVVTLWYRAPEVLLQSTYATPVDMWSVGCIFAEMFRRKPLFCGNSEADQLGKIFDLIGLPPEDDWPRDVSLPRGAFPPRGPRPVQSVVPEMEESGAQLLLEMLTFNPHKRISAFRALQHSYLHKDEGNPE
T1 sequence (P24385 whole entry partner): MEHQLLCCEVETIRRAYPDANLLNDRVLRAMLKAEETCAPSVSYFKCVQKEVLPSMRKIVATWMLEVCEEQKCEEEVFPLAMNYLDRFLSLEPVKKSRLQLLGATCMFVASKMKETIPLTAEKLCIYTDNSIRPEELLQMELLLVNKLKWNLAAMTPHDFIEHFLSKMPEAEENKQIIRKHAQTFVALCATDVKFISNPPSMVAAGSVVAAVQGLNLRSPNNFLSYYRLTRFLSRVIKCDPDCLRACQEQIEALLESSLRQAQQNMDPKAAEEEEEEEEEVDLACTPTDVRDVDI
The experiment in a line: CDK4/CyclinD1 kinase activity test (LANCE Ultra TR-FRET). The experiment is classed as biochemical. The settings on record: 350 μM ATP, 25° C., 120 minutes; read-out: Enzyme activity data (IC50) CDK4/cyclinD1. As for the experimental part:
Experimental materials: CDK4/CyclinD1 kinase was purchased from Invitrogen, reaction substrate LANCE Ultra ULight™-4E-BP-1 (Thr37146) Peptide and EU-ANTI-P-4EBP1 (THR37/46) were purchased from PerkinElmer. Nivo Multilabel Analyzer (PerkinElmer).
Experimental method: preparation of kinase buffer: The components of the buffer include: 50 mM of hydroxyethylpiperazine […] solution with pH 7.5, 1 mM of EDTA, 10 mM of magnesium chloride, 0.01% lauryl polyoxyethylene ether (Brij-35), 2 mM of enzyme dithiothreitol, kinase buffer dilution enzyme, substrate LANCE Ultra ULight™-4E-BP-1 (Thr37146) Peptide, adenosine triphosphate and inhibitor. […] The reaction system was continued at 25° C. for 120 minutes. After the reaction was complete, a mixture of 5 μL of EDTA and 2× LANCE™ Detection Buffer (1:1) was added to each well, and reacted at 25° C. for 5 minutes, after the reaction was complete, 5 μL of LANCE Ultra Eu-anti-P-4E-BP1(Thr37MS) (4 nM) was added to each well, and reacted at 25° C. for 60 minutes, the reaction signal was detected by Nivo instrument according to the principle of time-resolved fluorescence resonance energy transfer.
Table 1 provides the enzymatic inhibitory activities of the compounds of the present invention on CDK2/CyclinA2, CDK2/CyclinE1, CDK4/CyclinD1, CDK6/CyclinD1, CDK9/CyclinT1.
A general note: Time-resolved FRET reads energy transfer from a long-lived donor to a nearby acceptor.

Another experiment deals with T2, CDK2/CyclinA2 (Homo sapiens, UniProt P24941).
T2 construct: purchased Promega
The experiment in a line: CDK2/CyclinA2 kinase activity test (ADP-Glo). The class given is biochemical. The settings on record: 50 μM ATP, 25° C., 60 minutes; read-out: Enzyme activity data (IC50) CDK2/cyclinA. As for the experimental part: Experimental materials: CDK2/CyclinA2 kinase detection kit was purchased from Promega. Nivo Multilabel Analyzer (PerkinElmer).
Experimental method: Kinase buffer dilution enzyme in the kit, substrate, adenosine triphosphate and inhibitor were used. The compounds to be tested were diluted 5-fold to the 8th concentration with a row gun, that is, from 50 μM to 0.65 nM, the concentration of DMSO was 5%, and a double-replicate well experiment was set up. 1 μL of each concentration gradient of inhibitor, 2 μL of CDK2/CyclinA2 enzyme (1.6 ng), and 2 μL of a mixture of substrate and ATP (50 μM of adenosine triphosphate, 0.1 μg/μL of substrate) were added to the microplate, and at this time, the final concentration gradient of compound was diluted from 10 μM to 0.13 nM. The reaction system was placed at 25° C. and reacted for 60 minutes. After the reaction was complete, 5 μL of ADP-Glo reagent was added to each well, and the reaction was continued at 25° C. for 40 minutes. At the end of the reaction, 10 μL of kinase detection reagent was added to each well. After the reaction was continued at 25° C. for 30 minutes, the chemiluminescence was read by a multi-label analyzer with an integration time of 0.5 seconds.
Using the equation (Sample−Min)/(Max−Min)×100% to convert the original data into inhibition rate, the IC50 value can be obtained by curve fitting with four parameters (obtained by the mode of log(inhibitor) vs. response—Variable slope in GraphPad Prism). Table 1 provides the enzymatic inhibitory activities of the compounds of the present invention on CDK2/CyclinA2, CDK2/CyclinE1, CDK4/CyclinD1, CDK6/CyclinD1, CDK9/CyclinT1.
In general terms: ADP-Glo turns the ADP formed in a reaction into a luminescent signal.

The next experiment deals with HCT116 cells. The experiment in a line: HCT116 cell activity test (CellTiter-Glo). The class given is cell-based. The settings on record: Homo sapiens, HCT-116, 96 h, 4 days, read-out: Antiproliferative activity (IC50) HCT 116. As for the experimental part: Experimental materials: McCoy' 5a medium, fetal bovine serum, and penicillin/streptomycin antibiotics were purchased from Vicente. CellTiter-Glo (chemiluminescence detection reagent for cell viability) reagent was purchased from Promega. The HCT116 cell line was purchased from Cobioer Biosciences Co., Ltd. Nivo Multilabel Analyzer (PerkinElmer).
Experimental method: HCT116 cells were seeded in a white 96-well plate, 80 μL of cell suspension per well, which contained 1000 HCT116 cells. The cell plate was incubated overnight in a carbon dioxide incubator. The compounds to be tested were diluted 5-fold to the 9th concentration with a row gun, that is, from 2 mM to 5.12 nM, and a double-replicate well experiment was set up. 78 μL of medium was added to the middle plate, and then transferred 2 μL per well of the gradient diluted compound to the middle plate according to the corresponding position, mixed well and transferred 20 μL per well to the cell plate. […] Another cell plate was prepared, and the signal value was read as the maximum value (Max value in the equation below) on the day of drug addition to participate in data analysis. 25 μL of chemiluminescence detection reagent for cell viability was added to each well of the cell plate, and incubated at room temperature for 10 minutes to stabilize the luminescence signal. A multi-label analyzer was used for reading. […]
For orientation: ATP-based viability assays read luminescence as a measure of living cells.

Take `C[C@@]1(O)CCC[C@H]1N1C(=O)CCc2cnc(NC3CCN(S(C)(=O)=O)CC3)nc21` [Compound 1A]: the IC50 came out at 155 nM in the experiment with HCC1806 cells, 5.9 nM at CDK4/CyclinD1, 0.28 nM on CDK2/CyclinA2 and 70 nM in the experiment on HCT116 cells.
